# Measurements from patent US7354739B2, “TML polynucleotides” (ZymoGenetics, Inc., priority 1997, dated 2008).
# Tests used:
# [1] = test system: antral portion of the stomach; test: Antral stomach contractions monitored by transducing crystals in anesthetized rats; type: in vivo, Sprague-Dawley rats
# From the text: Two male Sprague-Dawley rats, approximately 12 weeks old (Harlan, Indianapolis, Ind.) were anesthetized with urethane and their stomachs were exposed through a small abdominal incision. Two 2.4 mm transducing crystals (Sonometrics, Ontario, Canada) were placed on the antral portion of the stomach such that circular contractions could be monitored as a change in the distance between the two crystals. The crystals were attached with VETBOND TISSUE ADHESIVE (3M, St. Paul, Minn.).
# The amplitude of the NE-induced decrease was approximately 50% of the acetylcholine-induced increase in distance. Both responses were transient.
# A negative control of 10 μl of phosphate buffer solution (PBS) applied topically between the crystals had no effect.
# A 14 amino acid zsig33 peptide (from amino acid residue 24 (Gly) to amino acid residue 37 (Gln) of SEQ ID NO: 2) was dissolved in PBS) and 10 μl was applied topically for a final concentration of 1 μg, […]
# [2] = Fourteen-day twice-daily oral dosing in ob/ob mice: body weight, food intake, glucose clearance; type: in vivo; conditions: 1 μg/mouse orally twice daily for fourteen days
# Method: Sixteen female ob/ob mice, 8 weeks old, (Jackson Labs, Bar Harbor, Me.) were adapted to a special 4 hour daily feeding schedule for two weeks. The were fed ad libitum from 7:30-11:30 am daily. After two weeks on the feeding schedule, the mice were divided into two groups of 8. One group was given 1.0 μg/mouse of zsig33-1 (14 amino acid peptide) and the other vehicle (a 14 amino acid scrambled sequence peptide) in 100 μl sterile 0.1% BSQA by oral gavage just prior to receiving food, and at the end of the 4 hour feeding period. The mice were […] twice daily for fourteen days, during which time food intake and body weight was measured daily. On day 14, immediately after the second oral gavage of the zsig33-1 peptide, the mice were challenged orally with an 0.5 ml volume of 25% glucose. Retro-orbital bleeds were done to determine serum glucose levels immediately prior to administration of the zsig33-1 peptide or vehicle ([…].), and also at 0, 1, 2, and 4 hours following the glucose challenge.
# stomach = test: Transit of phenol red through the stomach (gastric emptying) of fasted rats; type: in vivo, Sprague-Dawley rats; conditions: 1 μg applied topically to the stomach; 30 minutes after gavage; compared to a scrambled peptide
# Method: The effect of topically applied zsig33 peptide (amino acid 24 to 37 of SEQ ID NO: 2) on the transit of phenol red through the stomachs of fasted male Sprague-Dawley rats (Harlan, Indianapolis, Ind.) was evaluated. The rats (6 animals, 8 weeks old) were fasted 24 hrs prior to being anesthetized with urethane(0.5 ml/100 grams of 25% solution). After anesthetizing, the animals were orally gavaged with 1 ml of Phenol Red solution (50 mg/ml in 2% methylcellulose solution). The stomach of each animal was exposed through a small abdominal incision and either 1 μg zsig33 peptide or a 14 amino acid control of a scrambled sequence peptide was applied topically to the stomach five minutes following the gavage. The amount of Phenol Red remaining in the stomach was determined by measuring optical density of the extracted stomach contents 30 minutes after the gavage.
# [3] = test system: post-prandial glucose absorption; test: Oral glucose challenge after oral zsig33 peptide in ob/ob mice; type: in vivo; conditions: 100 μg orally, 30 minutes prior to an oral glucose challenge
# Method: Eight female ob/ob mice, approximately 6 weeks old (Jackson Labs, Bar Harbor, Me.) were adapted to a 4 hour daily feeding schedule for two weeks. After two weeks on the feeding schedule, the mice were give 100 μg of a 14 amino acid amino zsig33 peptide (from amino acid residue 24 (Gly) to amino acid residue 37 (Gln) of SEQ ID NO: 2) in 100 μl sterile 0.1% BSA by oral gavage, immediately after their eating period (post-prandially). Thirty minutes later, the mice were challenged orally with a 0.5 ml volume of 25% glucose. Retroorbital bleeds were done to determine serum glucose levels. Blood was drawn prior to zsig33 dosing, prior to oral glucose challenge, and at 1, 2, 4, and 20 hours following the glucose challenge.
compound,measurement,setting,value
"NC[C@H](O)c1ccc(O)c(O)c1 [norepinephrine, reference compound]",amplitude of the NE-induced decrease relative to the acetylcholine-induced increase in distance,[1]; 10 μl of 1 μM applied topically,approximately 50%
same,change in the distance between the two crystals,[1]; 10 μl of 1 μM applied topically to the stomach between the crystals,reduction in the distance between the two crystals
zsig33-1: peptide corresponding to amino acid residue 24 (Gly) to residue 37 (Gln) of SEQ ID NO: 2; residues 1 to 14 of SEQ ID NO:11 (GSSFLSPEHQRVQQRKES; listed as Homo sapiens),change in crystal distance,[1]; 1 μg in 10 μl PBS applied topically,"sustained, rhythmic increase and decrease in crystal distance"
same,rate and amplitude of the contractions (dose dependence),"[1]; 10 μg and 100 μg applied topically, compared with 1 μg",enhanced responses in both rate and amplitude
same,daily body weight,[2],no affect
same,food intake,[2],no affect
same,reduction of the amount of Phenol Red remaining in the stomach,stomach,approximately 25%
same,post-prandial glucose absorption (serum glucose),[3],enhanced post-prandial glucose absorption
